Experimental data: PubChem BioAssay (NCI)
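Abbreviation: GI50, concentration required for 50% inhibition of growth. The concentration for full growth arrest is given as TGI.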

Key:
Test in all cases: NCI-60 cell line screen, 384-well format
U251 glioblastoma = test system: U251 glioblastoma
MOLT-4 leukemia = test system: MOLT-4 leukemia
CAKI-1 renal = test system: CAKI-1 renal
HCT-116 colon = test system: HCT-116 colon
OVCAR-5 ovarian = test system: OVCAR-5 ovarian
NCI-H23 lung = test system: NCI-H23 lung
MCF7 breast = test system: MCF7 breast
SF-268 CNS = test system: SF-268 CNS
UACC-257 melanoma = test system: UACC-257 melanoma
K-562 leukemia = test system: K-562 leukemia
NCI-H322M lung = test system: NCI-H322M lung
M14 melanoma = test system: M14 melanoma
NCI/ADR-RES ovarian = test system: NCI/ADR-RES ovarian
HCT-15 colon = test system: HCT-15 colon
UO-31 renal = test system: UO-31 renal
T-47D breast = test system: T-47D breast
A549 NSCLC = test system: A549 NSCLC
HS 578T breast = test system: HS 578T breast
BT-549 breast = test system: BT-549 breast
MDA-MB-468 breast = test system: MDA-MB-468 breast
SF-539 CNS = test system: SF-539 CNS
HT29 colon = test system: HT29 colon
ACHN renal = test system: ACHN renal
IGROV1 ovarian = test system: IGROV1 ovarian
HOP-92 NSCLC = test system: HOP-92 NSCLC
SR leukemia = test system: SR leukemia
HOP-62 NSCLC = test system: HOP-62 NSCLC
UACC-62 melanoma = test system: UACC-62 melanoma
NCI-H460 NSCLC = test system: NCI-H460 NSCLC
EKVX NSCLC = test system: EKVX NSCLC

NC(=O)Nc1cc(-c2cccc(F)c2)sc1C(=O)N[C@H]1CCCNC1
TGI (U251 glioblastoma): 2880 nM
GI50 (MOLT-4 leukemia): 40.6 nM
TGI (MOLT-4 leukemia): 189 nM
GI50 (CAKI-1 renal): 294 nM
TGI (CAKI-1 renal): 1500 nM
GI50 (HCT-116 colon): 1000 nM
TGI (HCT-116 colon): 2670 nM
GI50 (OVCAR-5 ovarian): 289 nM
TGI (OVCAR-5 ovarian): 1620 nM
GI50 (NCI-H23 lung): 66.5 nM
TGI (NCI-H23 lung): 267 nM
GI50 (MCF7 breast): 53.3 nM
TGI (MCF7 breast): 12200 nM
GI50 (SF-268 CNS): 132 nM
TGI (SF-268 CNS): 910 nM
GI50 (UACC-257 melanoma): 1970 nM
TGI (UACC-257 melanoma): 11100 nM
GI50 (K-562 leukemia): 103 nM
TGI (K-562 leukemia): 237 nM
GI50 (NCI-H322M lung): 161 nM
TGI (NCI-H322M lung): 967 nM
GI50 (M14 melanoma): 45.1 nM
TGI (M14 melanoma): 224 nM
GI50 (NCI/ADR-RES ovarian): 9190 nM
TGI (NCI/ADR-RES ovarian): 23000 nM
GI50 (HCT-15 colon): 1280 nM
TGI (HCT-15 colon): 2890 nM
GI50 (UO-31 renal): 362 nM
TGI (UO-31 renal): 1510 nM
GI50 (T-47D breast): 12700 nM
TGI (T-47D breast): 25400 nM
GI50 (A549 NSCLC): 315 nM
TGI (A549 NSCLC): 1570 nM
GI50 (HS 578T breast): 13.2 nM
TGI (HS 578T breast): 284 nM
GI50 (BT-549 breast): 16.6 nM
TGI (BT-549 breast): 105 nM
GI50 (MDA-MB-468 breast): 202 nM
TGI (MDA-MB-468 breast): 698 nM
GI50 (SF-539 CNS): 22.8 nM
TGI (SF-539 CNS): 104 nM
GI50 (HT29 colon): 221 nM
TGI (HT29 colon): 700 nM
GI50 (ACHN renal): 49.7 nM
TGI (ACHN renal): 295 nM
GI50 (IGROV1 ovarian): 79.6 nM
TGI (IGROV1 ovarian): 887 nM
GI50 (HOP-92 NSCLC): 38.1 nM
TGI (HOP-92 NSCLC): 407 nM
GI50 (SR leukemia): 36.5 nM
TGI (SR leukemia): 154 nM
GI50 (HOP-62 NSCLC): 146 nM
TGI (HOP-62 NSCLC): 565 nM
GI50 (UACC-62 melanoma): 319 nM
TGI (UACC-62 melanoma): 3330 nM
GI50 (NCI-H460 NSCLC): 284 nM
TGI (NCI-H460 NSCLC): 2060 nM
GI50 (EKVX NSCLC): 389 nM
TGI (EKVX NSCLC): 2150 nM
